Data set [1] is described as follows: UV/Vis absorption and fluorescence (photophysical properties) in DMSO. In kind it is physicochemical. Particulars: for λem: excitation at 340 nm; for Φf (fluorescence quantum yield): relative to quinine sulfate, average of two samples. The procedure:
S1.6 UV/Vis and Fluorescence Data
UV/Vis analysis was performed on a Cary Eclipse 300 UV/Vis spectrophotometer and fluorescence measurements performed on a Cary Eclipse Fluorescence spectrophotometer. All analysis was performed in 10 mm quartz cuvettes using AR grade DMSO. Relative quantum yields were obtained by comparison to quinine sulfate (фf = 0.58 in 0.1 M H2SO4) with absorbance of samples adjusted so that the absorbance at 340 nm was similar to the reference.
Emission spectra were obtained by excitation at 340 nm. Quantum yield was obtained by use of the following equation and are reported as the average of two samples with error <5%; […]
Where фref is the literature quantum yield of the reference, η is the refractive index of the solvent (H2O = 1.333, DMSO = 1.479) and Is is the integrated fluorescence intensity of the sample with Iref being the same of the reference.
Table S1 – Photophysical properties of selected compounds in DMSO […]
†Average of two samples, ±1%

Another data set deals with T1, HDAC8 (Homo sapiens, UniProt Q9BY41).
T1 construct: purchased Reaction Biology corporation (contract assay)
T1 sequence (Q9BY41 1-377): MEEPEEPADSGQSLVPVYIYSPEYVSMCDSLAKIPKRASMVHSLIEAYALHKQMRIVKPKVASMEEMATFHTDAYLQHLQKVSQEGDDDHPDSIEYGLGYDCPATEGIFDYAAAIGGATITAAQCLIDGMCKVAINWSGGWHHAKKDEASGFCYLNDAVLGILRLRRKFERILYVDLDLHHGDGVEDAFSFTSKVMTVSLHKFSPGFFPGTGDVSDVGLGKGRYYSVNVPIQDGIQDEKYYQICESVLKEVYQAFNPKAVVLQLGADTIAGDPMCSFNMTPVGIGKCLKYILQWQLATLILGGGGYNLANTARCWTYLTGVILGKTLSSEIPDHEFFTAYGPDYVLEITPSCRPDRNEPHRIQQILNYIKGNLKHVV
Put plainly: HDAC8 enzyme inhibition assay (single point and 10-dose IC50, Reaction Biology). The note with it: for IC50: average of two independent measurements; for Selectivity factor (SF) HDAC8 against HDAC6: selectivity for HDAC6 over HDAC8. In kind it is biochemical. The procedure:
(§1) Against HDAC6, inhibition was determined using 0.01 µM of the inhibitor.
(§2) All IC50 measurements we performed by Reaction Biology corporation. Compounds were tested in
(§3) dilution starting at 1 uM. […]
(§4) (RHK(Ac)K(Ac)AMC). IC50 values were calculated using the GraphPad Prism 4 program based on a
(§5) sigmoidal dose-response equation. […]

For a further data set, the target named is T2, HDAC3 (Homo sapiens, UniProt O15379).
T2 construct: purchased Reaction Biology corporation (contract assay)
In words: HDAC3 enzyme inhibition assay (single point and 10-dose IC50, Reaction Biology). The format is biochemical. Particulars: for IC50: average of two independent measurements; for HDAC3 average enzyme isoform activity (percentage of full enzyme activity): single point, inhibitor 1.0 μM, average of two measurements, ±2%. Here is the method: as §2, §3, §4, §5

The next data set deals with T3, HDAC6 (Homo sapiens, UniProt Q9UBN7).
T3 construct: purchased Reaction Biology corporation (contract assay)
T3 sequence (Q9UBN7 1-1215): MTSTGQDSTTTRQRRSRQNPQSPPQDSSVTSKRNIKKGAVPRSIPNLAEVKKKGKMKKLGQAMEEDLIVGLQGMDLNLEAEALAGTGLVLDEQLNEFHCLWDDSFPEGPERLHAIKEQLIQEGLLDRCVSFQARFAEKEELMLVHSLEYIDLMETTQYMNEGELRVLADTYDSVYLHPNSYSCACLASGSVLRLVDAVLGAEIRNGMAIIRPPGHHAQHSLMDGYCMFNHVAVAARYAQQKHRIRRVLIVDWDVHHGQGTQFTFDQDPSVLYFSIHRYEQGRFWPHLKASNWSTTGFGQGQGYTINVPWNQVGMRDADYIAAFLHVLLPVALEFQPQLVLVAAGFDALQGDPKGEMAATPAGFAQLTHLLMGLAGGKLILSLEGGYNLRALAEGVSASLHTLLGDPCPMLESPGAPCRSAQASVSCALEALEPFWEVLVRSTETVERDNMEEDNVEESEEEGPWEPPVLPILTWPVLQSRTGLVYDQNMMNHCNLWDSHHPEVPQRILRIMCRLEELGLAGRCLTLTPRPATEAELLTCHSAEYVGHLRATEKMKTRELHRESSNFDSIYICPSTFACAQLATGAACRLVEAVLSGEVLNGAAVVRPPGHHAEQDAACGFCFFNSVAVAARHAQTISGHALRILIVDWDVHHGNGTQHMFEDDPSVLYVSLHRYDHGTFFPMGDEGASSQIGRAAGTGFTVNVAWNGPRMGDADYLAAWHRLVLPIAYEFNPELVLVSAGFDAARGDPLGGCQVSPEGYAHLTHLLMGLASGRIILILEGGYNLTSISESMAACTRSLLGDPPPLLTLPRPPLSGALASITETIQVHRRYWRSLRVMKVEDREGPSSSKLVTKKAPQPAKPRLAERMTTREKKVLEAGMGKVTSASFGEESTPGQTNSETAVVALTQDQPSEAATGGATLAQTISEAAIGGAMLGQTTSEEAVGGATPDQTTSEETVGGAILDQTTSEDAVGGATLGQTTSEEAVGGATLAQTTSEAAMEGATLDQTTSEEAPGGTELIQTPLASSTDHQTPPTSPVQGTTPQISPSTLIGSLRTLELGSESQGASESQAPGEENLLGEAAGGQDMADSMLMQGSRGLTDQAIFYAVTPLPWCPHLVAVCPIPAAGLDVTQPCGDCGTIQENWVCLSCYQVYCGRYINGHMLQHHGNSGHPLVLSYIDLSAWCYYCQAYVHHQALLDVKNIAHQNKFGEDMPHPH
Put plainly: HDAC6 enzyme inhibition assay (single point and 10-dose IC50, Reaction Biology). In kind it is biochemical. Particulars: for IC50: average of two independent measurements; for HDAC6 average enzyme isoform activity (percentage of full enzyme activity): single point, inhibitor 0.01 μM, average of two measurements, ±2%. Here is the method: as §1, §2, §3, §4, §5

For the next data set, the target named is T4, HDAC11 (Homo sapiens, UniProt Q96DB2).
T4 construct: purchased Reaction Biology corporation (contract assay)
T4 sequence (Q96DB2 1-347): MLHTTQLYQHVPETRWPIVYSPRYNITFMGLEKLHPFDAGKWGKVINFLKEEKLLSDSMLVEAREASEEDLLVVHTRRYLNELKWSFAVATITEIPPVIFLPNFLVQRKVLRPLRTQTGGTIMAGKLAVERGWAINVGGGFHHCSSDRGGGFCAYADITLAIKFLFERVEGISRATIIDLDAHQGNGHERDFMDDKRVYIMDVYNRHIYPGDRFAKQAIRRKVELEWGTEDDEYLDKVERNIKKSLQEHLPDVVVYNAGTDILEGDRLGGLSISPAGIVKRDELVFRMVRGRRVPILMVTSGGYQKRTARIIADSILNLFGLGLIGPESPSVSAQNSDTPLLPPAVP
In words: HDAC11 enzyme inhibition assay (single point and 10-dose IC50, Reaction Biology). The note with it: for IC50: average of two independent measurements; for Selectivity factor (SF) HDAC11 against HDAC6: selectivity for HDAC6 over HDAC11; for HDAC11 average enzyme isoform activity (percentage of full enzyme activity): single point, inhibitor 1.0 μM, average of two measurements, ±2%. In kind it is biochemical. Here is the method:
as §1
All IC50 measurements we performed by Reaction Biology corporation. Compounds were tested in […]
dilution starting at 1 uM.
Substrate for HDAC11: 50 uM Fluorogenic HDAC Class2a Substrate […]
(Trifluoroacetyl Lysine).
(RHK(Ac)K(Ac)AMC). IC50 values were calculated using the GraphPad Prism 4 program based on a sigmoidal dose-response equation. […]

In another data set the target is T5, HDAC1 (Homo sapiens, UniProt Q13547).
T5 construct: purchased Reaction Biology corporation (contract assay)
In words: HDAC1 enzyme inhibition assay (single point and 10-dose IC50, Reaction Biology). The format is biochemical. The note with it: for IC50: average of two independent measurements; for Selectivity factor (SF) = HDAC1 IC50/HDAC6 IC50: selectivity for HDAC6 over HDAC1; for HDAC1 average enzyme isoform activity (percentage of full enzyme activity): single point, inhibitor 1.0 μM, average of two measurements, ±2%. Here is the method:
as §2, §3, §4, §5

[2] abbreviates: single point, inhibitor 1.0 μM, average of two measurements, ±2%.

Values joined by “and” are separate entries in the source; they are usually repeats but may differ in a detail not shown here. Identical values can stand only once. Like-named read-outs stand apart in the source and are kept apart here.

T5 sequence (Q13547 whole entry): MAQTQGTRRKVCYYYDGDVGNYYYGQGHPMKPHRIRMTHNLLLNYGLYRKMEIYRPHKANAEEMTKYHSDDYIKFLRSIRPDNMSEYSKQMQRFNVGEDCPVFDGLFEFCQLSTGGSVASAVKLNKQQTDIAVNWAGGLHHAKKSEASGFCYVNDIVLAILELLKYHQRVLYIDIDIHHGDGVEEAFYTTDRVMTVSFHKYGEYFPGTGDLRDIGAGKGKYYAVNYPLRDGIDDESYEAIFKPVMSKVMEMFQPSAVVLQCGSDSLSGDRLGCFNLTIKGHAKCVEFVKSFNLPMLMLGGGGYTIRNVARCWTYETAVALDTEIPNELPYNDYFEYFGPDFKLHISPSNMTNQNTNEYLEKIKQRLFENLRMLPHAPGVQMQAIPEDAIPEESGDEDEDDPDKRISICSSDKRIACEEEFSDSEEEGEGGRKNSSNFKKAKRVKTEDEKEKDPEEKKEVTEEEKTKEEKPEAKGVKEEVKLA
T2 sequence (O15379 whole entry): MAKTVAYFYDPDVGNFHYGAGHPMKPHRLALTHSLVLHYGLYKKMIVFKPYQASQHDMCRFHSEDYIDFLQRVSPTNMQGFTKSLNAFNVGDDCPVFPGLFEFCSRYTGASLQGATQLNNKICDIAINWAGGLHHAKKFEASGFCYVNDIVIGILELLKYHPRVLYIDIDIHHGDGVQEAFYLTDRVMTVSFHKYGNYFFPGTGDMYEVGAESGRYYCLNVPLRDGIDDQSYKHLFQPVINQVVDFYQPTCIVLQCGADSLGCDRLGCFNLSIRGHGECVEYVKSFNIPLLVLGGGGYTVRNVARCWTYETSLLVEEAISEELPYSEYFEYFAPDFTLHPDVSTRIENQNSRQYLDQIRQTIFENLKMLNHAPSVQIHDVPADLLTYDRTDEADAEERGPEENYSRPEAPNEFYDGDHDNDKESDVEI
T2 sequence (Q9Y618 395-489 partner limits assumed): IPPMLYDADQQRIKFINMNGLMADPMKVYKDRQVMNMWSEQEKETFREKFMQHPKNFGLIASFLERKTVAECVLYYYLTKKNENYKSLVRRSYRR

Turning to `CCC(=O)Nc1cc2c3c(cccc3c1)C(=O)N(CCOC)C2=O` [Compound 7], in data set [1], the “λabs (absorption maximum)” value is 341 nm, the “λabs (secondary absorption maximum)” value came out at 383 nm, the λem is on record as 439 nm and the “Φf (fluorescence quantum yield)” value came out at 0.04.
For `COCCN1C(=O)c2cccc3cc(N4CCCC4=O)cc(c23)C1=O` [Compound 8] the same measures were 343 nm, 383 nm, 441 nm and 0.02.
As for `O=C(CCCCCN1C(=O)c2cccc3cccc(c23)C1=O)NO` [scriptaid, reference compound], on HDAC8, the “HDAC8 average enzyme isoform activity (percentage of full enzyme activity)” value amounted to 60.3%.
By IC50 is commonly meant the concentration at which inhibition is half-maximal. Low readings indicate greater potency in that assay, high ones weaker potency in that assay. Turning to `COc1ccc(C(=O)Nc2cc3c4c(cccc4c2)C(=O)N(CCCCCC(=O)NO)C3=O)cc1` [KNH020], on HDAC3, half-maximal inhibition (IC50) was put at 27 ± 3 nM and the “HDAC3 average enzyme isoform activity (percentage of full enzyme activity)” value was found to be 17.2%. For the same molecule, the “Selectivity factor (SF) HDAC3 against HDAC6” value at HDAC3 (selectivity for HDAC6 over HDAC3) came out at 47. Besides, at HDAC6, the IC50 was 0.58 ± 0.002 nM and the “HDAC6 average enzyme isoform activity (percentage of full enzyme activity)” value turned out to be 19.7%. In addition, at HDAC8, the IC50 is 4330 ± 390 nM and the “Selectivity factor (SF) HDAC8 against HDAC6” value worked out at 7466. Further, the “HDAC8 average enzyme isoform activity (percentage of full enzyme activity)” value on HDAC8 (setting [2]) amounted to 93.4%. In addition, on HDAC11, the IC50 stood at 240 ± 11 nM, the “Selectivity factor (SF) HDAC11 against HDAC6” value was 413 and the “HDAC11 average enzyme isoform activity (percentage of full enzyme activity)” value is recorded as 58.7%. Further, in data set [1], the “λabs (absorption maximum)” value was found to be 343 nm; the “λabs (secondary absorption maximum)” value is 386 nm and 374 nm; the λem came to 437 nm; the “Φf (fluorescence quantum yield)” value turned out to be 0.05. Besides, at HDAC1, the IC50 came to 87 ± 7 nM, the “Selectivity factor (SF) = HDAC1 IC50/HDAC6 IC50” value is reported as 150 and the “HDAC1 average enzyme isoform activity (percentage of full enzyme activity)” value is given as 38.7%.
Regarding `COCCN1C(=O)c2cccc3cc(NC(=O)c4ccccc4)cc(c23)C1=O` [Compound 6], in data set [1], the “λabs (absorption maximum)” value came to 344 nm, the “λabs (secondary absorption maximum)” value was found to be 385 nm, the λem was 435 nm and the “Φf (fluorescence quantum yield)” value turned out to be 0.02.
Take `CCC(=O)Nc1cc2c3c(cccc3c1)C(=O)N(CCCCCC(=O)NO)C2=O` [KNH021]: at HDAC3, the 50% inhibitory concentration (IC50) came out at 32 ± 1 nM and the “HDAC3 average enzyme isoform activity (percentage of full enzyme activity)” value amounted to 20.1%. Besides, at HDAC6, it took 0.97 ± 0.05 nM to reach half-maximal inhibition (IC50) and the “HDAC6 average enzyme isoform activity (percentage of full enzyme activity)” value stood at 20.3%. In addition, at HDAC8, the half-maximal inhibitory concentration (IC50) amounted to 950 ± 50 nM and the “Selectivity factor (SF) HDAC8 against HDAC6” value was 981. In addition, the “HDAC8 average enzyme isoform activity (percentage of full enzyme activity)” value at HDAC8 (setting [2]) came to 50.4%. Moreover, on HDAC11, inhibition was half-maximal at 2160 ± 140 nM (IC50), the “Selectivity factor (SF) HDAC11 against HDAC6” value was determined as 2234 and the “HDAC11 average enzyme isoform activity (percentage of full enzyme activity)” value is listed as 90.7%. In addition, in data set [1], the “λabs (absorption maximum)” value was 341 nm, the “λabs (secondary absorption maximum)” value was determined as 383 nm, the λem was 435 nm and the “Φf (fluorescence quantum yield)” value amounted to 0.04. Moreover, at HDAC1, the IC50 was 37 ± 2 nM, the “Selectivity factor (SF) = HDAC1 IC50/HDAC6 IC50” value came out at 38 and the “HDAC1 average enzyme isoform activity (percentage of full enzyme activity)” value is reported as 29.8%.
As for `COCCN1C(=O)c2cccc3cc(NC(=O)OC(C)(C)C)cc(c23)C1=O` [Compound 9], in data set [1], the “λabs (absorption maximum)” value worked out at 345 nm, the “λabs (secondary absorption maximum)” value worked out at 367 nm, the λem is given as 442 nm and the “Φf (fluorescence quantum yield)” value was 0.06.

The values above are taken from paper PMC8232238 (Cells, 2021).
